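Step 1: Grow cells in 96-well plates. Step 2: Expose to compound for 48 hours at 5 concentrations. Step 3: Interpolate endpoints linearly; if unreached, use highest concentration. GI50 marks 50% less growth.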 Active and inactive are the calls of the source. No stated cut-off is given here; in the data, active = GI50 up to about 1.1 µM and inactive = higher.
Experiments:
Assay in all cases: NCI-60 cell line screen, 48 h
SNB-19 = test system: SNB-19
HL-60 = test system: HL-60
EKVX = test system: EKVX
SF-295 = test system: SF-295
NCI-H23 = test system: NCI-H23
RXF 393 = test system: RXF 393
Malme-3M = test system: Malme-3M
OVCAR-3 = test system: OVCAR-3
SK-MEL-28 = test system: SK-MEL-28
UACC-257 = test system: UACC-257
UACC-62 = test system: UACC-62
NCI-H522 = test system: NCI-H522
NCI-H460 = test system: NCI-H460
HCT-15 = test system: HCT-15
SN12C = test system: SN12C
HCT-116 = test system: HCT-116
KM12 = test system: KM12
U-251 = test system: U-251
OVCAR-8 = test system: OVCAR-8
CCRF-CEM = test system: CCRF-CEM

CCOC(=O)c1cc(Br)c(-c2cc(C)no2)[nH]1
GI50 (SNB-19): 80.4 µM (inactive) | GI50 (HL-60): 24.7 µM (inactive) | GI50 (EKVX): 34.8 µM (inactive) | GI50 (SF-295): 31.1 µM (inactive) | GI50 (NCI-H23): 24.4 µM (inactive) | GI50 (RXF 393): 31 µM (inactive) | GI50 (Malme-3M): 20.9 µM (inactive) | GI50 (OVCAR-3): 21.3 µM (inactive) | GI50 (SK-MEL-28): 32.4 µM (inactive) | GI50 (UACC-257): 28.1 µM (inactive) | GI50 (UACC-62): 35.2 µM (inactive) | GI50 (NCI-H522): 20.7 µM (inactive) | GI50 (NCI-H460): 21.1 µM (inactive) | GI50 (HCT-15): 25 µM | GI50 (SN12C): 32 µM (inactive) | GI50 (HCT-116): 27.3 µM (inactive) | GI50 (KM12): 10.1 µM (inactive) | GI50 (U-251): 25.5 µM (inactive) | GI50 (OVCAR-8): 35.8 µM (inactive)

O=C1C=CC(=O)c2c(Cl)ccc(O)c21
GI50 (SNB-19): > 100 µM (inactive) | GI50 (HL-60): 2.96 µM (inactive) | GI50 (EKVX): 21.8 µM (inactive) | GI50 (SF-295): > 42.3 µM (inactive) | GI50 (NCI-H23): 12.4 µM (inactive) | GI50 (RXF 393): 16 µM (inactive) | GI50 (Malme-3M): 18.7 µM (inactive) | GI50 (OVCAR-3): 15.6 µM (inactive) | GI50 (SK-MEL-28): 18.8 µM (inactive) | GI50 (UACC-257): 16.1 µM (inactive) | GI50 (UACC-62): 16.8 µM (inactive) | GI50 (NCI-H522): 13.9 µM (inactive) | GI50 (NCI-H460): > 65.9 µM (inactive) | GI50 (HCT-15): 17.8 µM | GI50 (SN12C): 21.1 µM (inactive) | GI50 (HCT-116): 9.79 µM (inactive) | GI50 (KM12): 52.7 µM (inactive) | GI50 (U-251): > 57 µM (inactive) | GI50 (OVCAR-8): 20.4 µM (inactive)

O=C(/C=C/c1ccc(OCc2ccccc2)cc1)NCc1ccc(C(=O)NCc2ccccc2)cc1
GI50 (SNB-19): > 100 µM (inactive) | GI50 (EKVX): > 100 µM (inactive) | GI50 (SF-295): > 100 µM (inactive) | GI50 (NCI-H23): > 100 µM (inactive) | GI50 (CCRF-CEM): > 100 µM (inactive) | GI50 (RXF 393): 0.687 µM (active) | GI50 (Malme-3M): > 100 µM (inactive) | GI50 (OVCAR-3): > 100 µM (inactive) | GI50 (SK-MEL-28): > 100 µM (inactive) | GI50 (UACC-257): > 100 µM (inactive) | GI50 (UACC-62): > 100 µM (inactive) | GI50 (NCI-H522): > 100 µM (inactive) | GI50 (NCI-H460): > 100 µM (inactive) | GI50 (HCT-15): > 100 µM | GI50 (SN12C): > 100 µM (inactive) | GI50 (HCT-116): > 100 µM (inactive) | GI50 (KM12): > 100 µM (inactive) | GI50 (U-251): > 100 µM (inactive) | GI50 (OVCAR-8): > 100 µM (inactive)

CC1CC/C(=C\c2ccc(N(C)C)cc2)C2=C1C(c1ccc(N(C)C)cc1)NC(=S)N2 (stereo not given)
GI50 (SNB-19): > 100 µM (inactive) | GI50 (HL-60): > 100 µM (inactive) | GI50 (EKVX): > 100 µM (inactive) | GI50 (SF-295): > 100 µM (inactive) | GI50 (NCI-H23): > 100 µM (inactive) | GI50 (CCRF-CEM): > 100 µM (inactive) | GI50 (RXF 393): > 100 µM (inactive) | GI50 (Malme-3M): > 100 µM (inactive) | GI50 (OVCAR-3): > 100 µM (inactive) | GI50 (SK-MEL-28): > 100 µM (inactive) | GI50 (UACC-257): > 100 µM (inactive) | GI50 (UACC-62): > 100 µM (inactive) | GI50 (HCT-15): > 100 µM | GI50 (SN12C): > 100 µM (inactive) | GI50 (HCT-116): > 100 µM (inactive) | GI50 (KM12): > 100 µM (inactive) | GI50 (U-251): > 100 µM (inactive) | GI50 (OVCAR-8): > 100 µM (inactive)

COc1ccc(CCn2cncn2)cc1
GI50 (SNB-19): > 100 µM (inactive) | GI50 (HL-60): > 100 µM (inactive) | GI50 (EKVX): > 100 µM (inactive) | GI50 (SF-295): > 100 µM (inactive) | GI50 (NCI-H23): > 100 µM (inactive) | GI50 (CCRF-CEM): > 100 µM (inactive) | GI50 (OVCAR-3): > 100 µM (inactive) | GI50 (SK-MEL-28): > 100 µM (inactive) | GI50 (UACC-257): > 100 µM (inactive) | GI50 (UACC-62): > 100 µM (inactive) | GI50 (NCI-H522): > 100 µM (inactive) | GI50 (NCI-H460): > 100 µM (inactive) | GI50 (HCT-15): > 100 µM | GI50 (SN12C): > 100 µM (inactive) | GI50 (HCT-116): > 100 µM (inactive) | GI50 (KM12): > 100 µM (inactive) | GI50 (U-251): > 100 µM (inactive)

O=C1C(Cl)N(c2ccccc2[N+](=O)[O-])C1c1c[nH]c2ccccc12 (stereo not given)
GI50 (SNB-19): > 100 µM (inactive) | GI50 (HL-60): > 100 µM (inactive) | GI50 (EKVX): 83.6 µM (inactive) | GI50 (SF-295): > 100 µM (inactive) | GI50 (NCI-H23): > 100 µM (inactive) | GI50 (CCRF-CEM): > 100 µM (inactive) | GI50 (RXF 393): > 100 µM (inactive) | GI50 (Malme-3M): 94.4 µM (inactive) | GI50 (OVCAR-3): > 100 µM (inactive) | GI50 (SK-MEL-28): > 100 µM (inactive) | GI50 (UACC-257): > 100 µM (inactive) | GI50 (UACC-62): > 100 µM (inactive) | GI50 (NCI-H522): > 100 µM (inactive) | GI50 (NCI-H460): > 100 µM (inactive) | GI50 (SN12C): > 100 µM (inactive) | GI50 (HCT-116): > 100 µM (inactive) | GI50 (KM12): > 100 µM (inactive) | GI50 (U-251): > 100 µM (inactive) | GI50 (OVCAR-8): > 100 µM (inactive)

Cc1cc(C(=O)NCCN(C)C)c2nc3ccccc3cc2c1
GI50 (SNB-19): 2.01 µM (inactive) | GI50 (HL-60): 0.871 µM (active) | GI50 (EKVX): 0.594 µM (active) | GI50 (SF-295): 1.27 µM (inactive) | GI50 (NCI-H23): 2.3 µM (inactive) | GI50 (CCRF-CEM): 1.36 µM (inactive) | GI50 (RXF 393): 1.63 µM (inactive) | GI50 (Malme-3M): 1.6 µM (inactive) | GI50 (OVCAR-3): 2.38 µM (inactive) | GI50 (SK-MEL-28): 3.15 µM (inactive) | GI50 (UACC-257): 2.07 µM (inactive) | GI50 (UACC-62): 1.52 µM (inactive) | GI50 (NCI-H460): 0.372 µM (active) | GI50 (HCT-15): 1.65 µM | GI50 (SN12C): 1.59 µM (inactive) | GI50 (HCT-116): 0.904 µM (active) | GI50 (KM12): 2.94 µM (inactive) | GI50 (U-251): 2.69 µM (inactive) | GI50 (OVCAR-8): 1.25 µM (inactive)
